Several values for one entry are separate records, joined by “and”; a condition that tells them apart may be missing. Equal values may be shown once. Entries after “also recorded” stand apart in the source; their conditions may differ.
Tests used:
[1] = target: T1, Acetylcholinesterase (AChE) (Mus musculus, UniProt P21836); test: Acetylcholinesterase (AChE) assay in brain (in vitro), Ellman method; assay type: biochemical, Swiss albino mice
T1 construct: A 10% (w/v) homogenate of brain was prepared; from tissue; host or cells: whole brain of adult Swiss albino mice; supernatant (100,000 g) of the 1% Triton X-100 treated homogenate
T1 sequence (P21836 32-614): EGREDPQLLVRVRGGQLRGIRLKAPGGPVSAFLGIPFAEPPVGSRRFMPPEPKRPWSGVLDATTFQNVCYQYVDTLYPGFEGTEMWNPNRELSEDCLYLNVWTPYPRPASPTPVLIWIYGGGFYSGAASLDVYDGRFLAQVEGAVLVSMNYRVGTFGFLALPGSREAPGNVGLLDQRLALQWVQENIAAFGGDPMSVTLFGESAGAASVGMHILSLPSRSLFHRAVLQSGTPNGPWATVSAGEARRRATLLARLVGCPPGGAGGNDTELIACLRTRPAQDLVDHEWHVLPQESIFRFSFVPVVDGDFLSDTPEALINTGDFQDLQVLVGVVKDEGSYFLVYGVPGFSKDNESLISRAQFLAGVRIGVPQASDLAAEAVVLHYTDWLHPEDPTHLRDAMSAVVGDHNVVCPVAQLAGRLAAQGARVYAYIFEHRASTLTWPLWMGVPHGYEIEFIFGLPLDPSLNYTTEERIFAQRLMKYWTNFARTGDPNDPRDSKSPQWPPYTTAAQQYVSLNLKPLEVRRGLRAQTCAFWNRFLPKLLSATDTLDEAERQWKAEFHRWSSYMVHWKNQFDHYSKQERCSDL
Protocol: Acetylcholinesterase (AChE) Assay in Brain (In Vitro)
The mice were perfused under mild ether anesthesia through heart with ice cooled normal saline (0.9% NaCl) to remove blood-born cholinesterase from the brain. After perfusion the whole brain was taken out. A 10% (w/v) homogenate of brain was prepared first by homogenizing in an Ultra-Turrax T25 homogenizer at a speed of 9500 rpm thrice giving intervals for few seconds in between the runs, with sodium phosphate buffer (0.03 M, pH-7)).
The brain homogenate in volume of 500 μl was mixed with 1% Triton X-100 (1% w/v in 0.03M sodium phosphate buffer, pH-7) and centrifuged at 100,000 g at 4° C. in a Beckman Ultracentrifuge (LE 80, USA), using a fixed angle rotor (80 ti) for 60 min. Supernatant was collected and stored at 4° C. for acetylcholinesterase estimation.
The assay for each sample was run in triplicate and each experiment was performed twice.
The specific activity of AChE is expressed in μM/min/mg of protein.
The test substance (dissolved in ethanol) was incubated with enzyme source in different concentrations ([…]) for 30 min at 37° C. prior to obtain kinetic profile of AChE activity. […] The AChE inhibitory activity was calculated on the basis of % decrease in AChE activity from control values i.e. AChE activity without incubation with any standard or test drug.
The results are expressed as mean±S.E.M. Statistical analysis of passive avoidance values were performed by t-test. The IC50 value was calculated by non linear regression method using GraphPad Prism software.

[2] = tested on: scopolamine induced amnesia in mice; test: Passive avoidance test, scopolamine induced amnesia (in vivo); parameters: species or system Swiss albino male mice; details: oral 3.75, 7.5 and 15 mg/kg 1 hr prior to 1st trial, scopolamine 3 mg/kg IP, FIG. 3
Protocol: Passive avoidance test is widely used as experimental model to assess learning and memory functions in rodents. Scopolamine induced impairment in passive avoidance (in vivo) and inhibition of acetylcholinesterase (in vitro) in rodents are commonly employed screening tests to predict potential of a compound as acetylcholinesterase inhibitor and anti-amnesic drug (Das et al., 2002).
[…]. Mice were kept in standard housing condition with 12 h light and dark cycle. The food and water were available ad libitum.
The passive avoidance test was carried out as described by Tota et al., 2009. The mice were subjected to the passive avoidance test by placing in a compartment with light at intensity of 8 [Scale from 0 to 10 (brightest)] in a computerized shuttle box with a software programme PACS 30 (Columbus Instruments, Ohio, USA).
The light compartment was isolated from the dark compartment by an automated guillotine door. After an acclimatization period of 30 s, the guillotine door was opened and closed automatically after entry of the mouse into the dark compartment. The subject received a low-intensity foot shock (0.5 mA; 10 s) in the dark compartment. Infrared sensors monitored the transfer of the animal from one compartment to another which was recorded as transfer latency time (TLT) in seconds. […]

Swiss albino male mice = test: Gross behavioral study; details: 125 mg/kg oral dose, 125 mg/kg
[3] = read-out: % Inhibition of AChE enzyme

`CN(C)C(=O)Oc1ccc2c(c1)N(Cc1ccccc1)CCC2` [Compound 8k, 1-benzyl-1,2,3,4-tetrahydroquinolin-7-yl dimethylcarbamate] was tested, and the IC50 [1] was 99 ± 3 nM, the “AChE inhibitory activity compared to Tacrine” value ([1]; comparison with Tacrine) was “almost equal or even slightly better” and the “AChE inhibitory activity, fold better compared to the drug rivastigmine” value ([1]; fold better than rivastigmine) was 12 fold and 10 fold. The inhibition at 10 µM [1, 3] was 95.5%, the inhibition at 100 µM [1, 3] was 98% and the “improvement in learning (transfer latency time, passive avoidance)” value [2] was “shown potential towards the improvement in learning of mice and almost comparable to the drug Rivastigmine and Tacrine”. For the same molecule, the tolerability (Swiss albino male mice) was “Well tolerated” and the “cholinergic symptoms / side effects” value (Swiss albino male mice; upto 24 hrs of drug administration) was “no cholinergic symptoms and mortality was observed; also recorded: free from any observable side peripheral side effect; also recorded: No cholinergic symp-”.

From patent publication US8946261B2, “Substituted 1, 2, 3, 4-tetrahydroquinolin-7-yl carbamates as acetylcholinesterase inhibitors for treatment of Alzheimer's disease” (priority 2011, dated 2015)
